{"source": "paper PMC8307384", "about": "“Characterization of Two α-L-Arabinofuranosidases from Acetivibrio mesophilus and Their Synergistic Effect in Degradation of Arabinose-Containing Substrates” (Microorganisms, 2021)", "target": "T1, AmAraf51 (Acetivibrio mesophilus, UniProt A0A4Q0I2R2)", "T1 construct": "gene EFD62_11990; complete ORF, 509 residues, no signal peptide; N-terminal His6 tag (not reported cut); E. coli ArcticExpress (DE3), pET24c", "T1 sequence (A0A4Q0I2R2 entry or part of it)": "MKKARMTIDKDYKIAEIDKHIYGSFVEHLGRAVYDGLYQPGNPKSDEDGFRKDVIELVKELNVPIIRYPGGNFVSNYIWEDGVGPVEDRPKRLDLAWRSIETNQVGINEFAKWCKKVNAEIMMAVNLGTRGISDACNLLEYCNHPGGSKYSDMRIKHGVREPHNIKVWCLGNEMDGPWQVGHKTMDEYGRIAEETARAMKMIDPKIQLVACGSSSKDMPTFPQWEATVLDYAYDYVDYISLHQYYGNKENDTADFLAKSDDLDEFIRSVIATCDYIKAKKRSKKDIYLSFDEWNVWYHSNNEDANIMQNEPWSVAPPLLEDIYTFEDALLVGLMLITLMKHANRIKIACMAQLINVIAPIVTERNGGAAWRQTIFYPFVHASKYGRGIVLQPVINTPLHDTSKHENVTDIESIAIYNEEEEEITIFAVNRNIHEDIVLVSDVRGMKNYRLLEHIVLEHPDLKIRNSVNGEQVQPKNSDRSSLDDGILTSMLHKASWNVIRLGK", "test": "TLC of hydrolysis products", "type": "biochemical", "details": "85 nM enzyme, 0.5 g/L substrate, pH 6.0, 60 °C"}
{"molecule": "OC[C@@H]1O[C@@H](OC[C@@H]2O[C@@H](OC[C@@H]3OC(O)[C@H](O)[C@H]3O)[C@H](O)[C@H]2O)[C@H](O)[C@H]1O", "note": "(stereo partly shown) [A3, arabinotriose]", "values": [{"measurement": "TLC of hydrolysis products", "result": "incubation of AmAraf51 with three different AOS led to their almost complete hydrolysis to arabinose"}]}
